Test results from patent US20070196421A1, “Soft tissue implants and drug combination compositions, and use thereof” (priority 2005, published 2007).
Where a name gives a salt, the structure may show the parent alone.

What was measured:
[1] = cited from earlier work; for solubility in alcohol / ethanol (in words): alcohol or ethanol
[2] = tested on: immunosuppressive agents, such as cyclosporine; test: potency of immunosuppressive agents (enhancer effect)
[3] = tested on: S. pyogenes C721; test: MIC by microtitre broth dilution; assay type: cell-based; details: Gram+, wt, Todd Hewitt broth, 37° C., 24 h
Protocol: (§1) MIC assays were conducted essentially as described by Amsterdam, D. 1996, “Susceptibility testing of antimicrobials in liquid media”, p. 52-111, in Loman, V., ed. Antibiotics in laboratory medicine, 4th ed. Williams and Wilkins, Baltimore, Md.

[4] = tested on: E. coli UB1005 C498; test: MIC by microtitre broth dilution; assay type: cell-based; details: Gram−, wt, Mueller Hinton broth, 37° C., 24 h
Protocol: as §1

[5] = tested on: P. aeruginosa PAE/K799 H187; test: MIC by microtitre broth dilution; assay type: cell-based; details: Gram−, wt, Mueller Hinton broth, 37° C., 24 h
Protocol: as §1

[6] = tested on: S. aureus ATCC25923 C622; test: MIC by microtitre broth dilution; assay type: cell-based; details: Gram+, wt, Mueller Hinton broth, 37° C., 24 h
Protocol: as §1

[7] = tested on: K. pneumoniae ATCC13883 C238; test: MIC by microtitre broth dilution; assay type: cell-based; details: Gram−, wt, Mueller Hinton broth, 37° C., 24 h
Protocol: as §1

[8] = tested on: S. epidermidis C621; test: MIC by microtitre broth dilution; assay type: cell-based; details: Gram+, wt, Mueller Hinton broth, 37° C., 24 h
Protocol: as §1

[9] = tested on: multiple drug-resistant strains of C. glabrata; test: antifungal activity against C. glabrata; assay type: cell-based; details: antifungal agent used in combination with the manganese compound
[10] = tested on: carrageenan-induced paw edema; test: Rat carrageenan-induced paw edema model: paw swelling; assay type: in vivo; details: local injection in paw at T-1 hr, Tmax = 6 hrs
Protocol: (§2) A dose-range finding study was performed to determine the anti-inflammatory activity of various ratios of methyl prednisolone acetate and amoxapine in a rat carrageenan-induced paw edema model. […] The molar ratio of methyl prednisolone acetate to amoxapine ranged from 1:1 to 1:300, using total doses of methyl prednisolone acetate of 0.01, 0.03 or 0.1 mg/kg.
(§3) The test agent (a combination of methyl prednisolone acetate and amoxapine), vehicle control, or reference agents (methyl prednisolone acetate, amoxapine, or Depo-Medrol®) were administered in the left hind foot pad of rats. After 60 minutes, paw edema was induced by injection of 100 μl of 1% carrageenan in the same foot pad. The paw volume was measured with a water displacement plethysmometer immediately prior to test agent injection (T−1h), at the time of carrageenan injection (T0h), and at T6h. Animals were euthanized by carbon dioxide inhalation. Paw tissue samples were collected and flash frozen in liquid nitrogen. Samples were assayed for TNF-α by enzyme-linked immunoassay (ELISA).

[11] = tested on: TNF-α; test: Rat carrageenan-induced paw edema model: TNF-α in paw tissue by ELISA; assay type: in vivo
Protocol: as §2, §3

[12] = tested on: p38; test: p38 activation; assay type: cell-based
[13] = tested on: glucocorticoid receptor; test: glucocorticoid receptor trafficking (mechanism study); assay type: cell-based
[14] = tested on: GRE reporter plasmid in T cells; test: transactivation of a transfected GRE reporter plasmid in T cells; assay type: cell-based
[15] = tested on: AP1; test: AP1 activation; assay type: cell-based
[16] = tested on: NFAT; test: NFAT activation, translocation and transactivation; assay type: cell-based
[17] = tested on: JNK; test: JNK activation; assay type: cell-based

| Compound | Minimum inhibitory concentration [3] | Minimum inhibitory concentration [4] | Minimum inhibitory concentration [5] | Minimum inhibitory concentration [6] | Minimum inhibitory concentration [7] | Minimum inhibitory concentration [8] | further results |
| --- | --- | --- | --- | --- | --- | --- | --- |
| NC(=O)c1ncn([C@@H]2O[C@H](CO)[C@@H](O)[C@H]2O)n1 [Ribavirin, ribavirin] | – | – | – | – | – | – | solubility in alcohol / ethanol (in words) [1]: slightly soluble |
| CCN(CC)C(C)CN1c2ccccc2Sc2ccccc21 (stereo not drawn) [Ethopropazine, ethopropazine] | – | – | – | – | – | – | effect on the potency of immunosuppressive agents [2]: increases the potency |
| Oc1cc(Cl)ccc1Oc1ccc(Cl)cc1Cl [triclosan, Triclosan] | – | – | – | – | – | – | effect on the potency of immunosuppressive agents [2]: increases the potency |
| COc1cccc2c1C(=O)c1c(O)c3c(c(O)c1C2=O)C[C@@](O)(C(=O)CO)C[C@@H]3O[C@H]1C[C@H](N)[C@H](O)[C@H](C)O1 [doxorubicin] | 10^−7 Molar | 10^−4 Molar | 10^−5 Molar | 10^−5 Molar | 10^−6 Molar | 10^−6 Molar | – |
| Nc1ccc(/N=N\c2ccccc2)c(N)n1 [phenazopyridine-HCl] | – | – | – | – | – | – | solubility in water (in words) [1]: slightly soluble |
| O=C1c2c(O)ccc(O)c2C(=O)c2c(NCCNCCO)ccc(NCCNCCO)c21 [mitoxantrone] | 10^−6 Molar | 10^−5 Molar | 10^−5 Molar | 10^−5 Molar | 10^−6 Molar | 10^−5 Molar | – |
| CN(C)C(=O)C(CCN1CCC(O)(c2ccc(Cl)cc2)CC1)(c1ccccc1)c1ccccc1 [Loperamide] | – | – | – | – | – | – | effect on the potency of immunosuppressive agents [2]: increase the potency |
| Nc1ccn([C@@H]2O[C@H](CO)[C@@H](O)[C@@H]2O)c(=O)n1 [Cytarabine, cytarabine] | N | N | N | N | N | N | – |
| CC[C@@]1(O)C(=O)OCc2c1cc1n(c2=O)Cc2cc3ccccc3nc2-1 [camptothecin, camptothecins] | N | N | N | N | N | 10^−4 Molar | – |
| Nc1ccc(/N=N/c2ccccc2)c(N)n1 [Phenazopyridine base, phenazopyridine] | – | – | – | – | – | – | solubility in alcohol / ethanol (in words) [1]: slightly soluble; solubility in water (in words) [1]: slightly soluble |
| Nc1ncnc2c1ccn2[C@@H]1O[C@H](CO)[C@@H](O)[C@H]1O [tubercidin] | N | N | N | N | N | N | – |
| CN(C/C=C/C#CC(C)(C)C)Cc1cccc2ccccc12.Cl [terbinafine, terbinafine hydrochloride] | – | – | – | – | – | – | enhancement of antifungal activity by the manganese compound [9]: enhances |
| CNCCCC12CCC(c3ccccc31)c1ccccc12 [maprotiline, Maprotiline] | – | – | – | – | – | – | effect on the potency of immunosuppressive agents [2]: increases the potency |
| NC(=O)NO [hydroxyurea] | 10^−4 Molar | N | 10^−4 Molar | N | N | N | – |
| N.N.[Cl][Pt][Cl] [cisplatin] | N | N | 10^−4 Molar | N | N | N | – |
| O=c1[nH]cc(F)c(=O)[nH]1 [5-fluorouracil, 5-FU] | 10^−4 Molar | 10^−6 Molar | 10^−5 Molar | 10^−7 Molar | 10^−6 Molar | 10^−7 Molar | – |
| CC[C@H](C)C[C@H](C)CCCCCCCCC(=O)N[C@H]1C[C@@H](O)[C@@H](NCCN)NC(=O)[C@@H]2[C@@H](O)CCN2C(=O)[C@H]([C@H](O)CCN)NC(=O)[C@H]([C@H](O)[C@@H](O)c2ccc(O)cc2)NC(=O)[C@@H]2C[C@@H](O)CN2C(=O)[C@H]([C@@H](C)O)NC1=O [caspofungin] | – | – | – | – | – | – | enhancement of antifungal activity by the manganese compound [9]: enhances |
| OC(Cn1cncn1)(Cn1cncn1)c1ccc(F)cc1F [fluconazole] | – | – | – | – | – | – | enhancement of antifungal activity by the manganese compound [9]: enhances |
| CN(Cc1cnc2nc(N)nc(N)c2n1)c1ccc(C(=O)N[C@@H](CCC(=O)O)C(=O)O)cc1 [methotrexate] | 10^−6 Molar | N | N | 10^−5 Molar | 10^−6 Molar | N | – |
| COc1cc([C@@H]2c3cc4c(cc3[C@@H](O[C@@H]3O[C@@H]5CO[C@@H](C)O[C@H]5[C@H](O)[C@H]3O)[C@H]3COC(=O)[C@H]23)OCO4)cc(OC)c1O [etoposide] | 10^−5 Molar | N | N | 10^−5 Molar | 10^−5 Molar | 10^−6 Molar | – |
| Sc1ncnc2nc[nH]c12 [6-mercaptopurine] | N | N | N | N | N | N | – |
| Sc1ncc2[nH]cnc2n1 [2-mercaptopurine] | N | N | N | N | N | N | – |
| CC(=O)OCC(=O)[C@@]1(O)CC[C@H]2[C@@H]3C[C@H](C)C4=CC(=O)C=C[C@]4(C)[C@H]3[C@@H](O)C[C@@]21C [MePredAc, methyl prednisolone acetate] | – | – | – | – | – | – | Edema ± SEM ([10]; 0.01 mg/kg): 32.6 ± 5.3%; Edema ± SEM ([10]; 0.03 mg/kg): 26.2 ± 7.0%; Edema ± SEM ([10]; 0.1 mg/kg): 12.2 ± 1.8%; TNF-α ± SEM ([11]; 0.01 mg/kg): 35.9 ± 11.3 pg/g; TNF-α ± SEM ([11]; 0.03 mg/kg): 19.2 ± 3.1 pg/g; TNF-α ± SEM ([11]; 0.1 mg/kg): 28.0 ± 6.0 pg/g |
| Fc1ccc([C@@H]2CCNC[C@H]2COc2ccc3c(c2)OCO3)cc1 [paroxetine] | – | – | – | – | – | – | p38 activation [12]: inhibition; glucocorticoid receptor trafficking [13]: does not promote; potentiation of prednisolone's ability to transactivate a GRE reporter plasmid [14]: does not promote glucocorticoid receptor trafficking or potentiate; AP1 activation [15]: inhibits; NFAT activation, translocation and transactivation [16]: represses; JNK activation [17]: inhibition |
| CCC(C)n1ncn(-c2ccc(N3CCN(c4ccc(OC[C@H]5CO[C@](Cn6cncn6)(c6ccc(Cl)cc6Cl)O5)cc4)CC3)cc2)c1=O (mixture of isomers) [itraconazole] | – | – | – | – | – | – | enhancement of antifungal activity by the manganese compound [9]: enhances |
